According to patent publication US20250002487A1, “HETEROCYCLIC COMPOUNDS AND USES THEREOF” (Ventus Therapeutics U.S., Inc., priority 2021, published 2025):

Molecular target: human-cGAS (h-cGAS) (Homo sapiens, UniProt Q8N884)
Assay: hcGAS Kinase-Glo Assay
Assay type: biochemical
Conditions: 40 nM h-cGAS, 100 μM ATP, 100 μM GTP, 25 nM dsDNA, 3 h incubation, read-out: hcGAS potency IC50
Method in brief: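 Kinase-Glo luminescent read-out of human cGAS activity, following the published Lama et al. (2019) protocol with slightly altered conditions. Inhibition reported as IC50.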

human-cGAS (h-cGAS), sequence (Q8N884 whole entry): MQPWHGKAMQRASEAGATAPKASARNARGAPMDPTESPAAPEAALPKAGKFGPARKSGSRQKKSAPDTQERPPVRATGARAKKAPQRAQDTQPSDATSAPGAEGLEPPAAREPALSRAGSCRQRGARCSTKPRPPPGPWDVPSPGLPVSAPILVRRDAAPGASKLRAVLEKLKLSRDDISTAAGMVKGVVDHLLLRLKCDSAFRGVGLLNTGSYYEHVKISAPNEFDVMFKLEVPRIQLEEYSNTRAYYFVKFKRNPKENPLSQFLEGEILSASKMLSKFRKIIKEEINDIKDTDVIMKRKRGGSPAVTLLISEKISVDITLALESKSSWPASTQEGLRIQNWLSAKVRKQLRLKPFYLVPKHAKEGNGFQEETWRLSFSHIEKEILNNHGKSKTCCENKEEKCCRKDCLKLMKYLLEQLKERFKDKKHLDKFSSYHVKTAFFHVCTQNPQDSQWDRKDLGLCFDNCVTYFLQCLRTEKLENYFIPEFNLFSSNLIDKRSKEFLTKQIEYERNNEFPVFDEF

Compound `CSc1nnc(NC(=O)c2cc(-c3cccc(C)c3)cc(=O)o2)s1` [Compound 249, N-(5-methylsulfanyl-1,3,4-thiadiazol-2-yl)-4-(m-tolyl)-6-oxo-pyran-2-carboxamide] has an IC50 of 100 to 500 nM.

In the case of `CSc1nnc(NC(=O)c2cc(-c3ccc(C)cc3)cc(=O)o2)s1` [Compound 250, N-(5-methylsulfanyl-1,3,4-thiadiazol-2-yl)-6-oxo-4-(p-tolyl)pyran-2-carboxamide], the IC50 is reported as 100 to 500 nM.

`CSc1nnc(NC(=O)c2cc(-c3ccccc3Cl)cc(=O)o2)s1` [Compound 251, 4-(2-chlorophenyl)-N-(5-methylsulfanyl-1,3,4-thiadiazol-2-yl)-6-oxo-pyran-2-carboxamide] showed an IC50 of 100 to 500 nM.

With `COc1ccc(-c2cc(C(=O)Nc3nnc(SC)s3)oc(=O)c2)cc1` [Compound 252, 4-(4-methoxyphenyl)-N-(5-methylsulfanyl-1,3,4-thiadiazol-2-yl)-6-oxo-pyran-2-carboxamide] the IC50 was 100 to 500 nM.

`CSc1nnc(NC(=O)c2cc(-c3cccc4ccccc34)cc(=O)o2)s1` [Compound 253, N-(5-methylsulfanyl-1,3,4-thiadiazol-2-yl)-4-(1-naphthyl)-6-oxo-pyran-2-carboxamide] was tested, and the IC50 was 100 to 500 nM.

`CSc1nnc(NC(=O)c2cc(-c3ccc4ccccc4n3)cc(=O)o2)s1` [Compound 254, N-(5-methylsulfanyl-1,3,4-thiadiazol-2-yl)-6-oxo-4-(2-quinolyl)pyran-2-carboxamide] showed an IC50 of 100 to 500 nM.

`CSc1nnc(NC(=O)c2cc(-c3cnc4ccccc4c3)cc(=O)o2)s1` [Compound 255, N-(5-methylsulfanyl-1,3,4-thiadiazol-2-yl)-6-oxo-4-(3-quinolyl)pyran-2-carboxamide] was tested, and the IC50 was 500 to 1000 nM.

For `CSc1nnc(NC(=O)c2cc(-c3cncc4ccccc34)cc(=O)o2)s1` [Compound 256, 4-(4-isoquinolyl)-N-(5-methylsulfanyl-1,3,4-thiadiazol-2-yl)-6-oxo-pyran-2-carboxamide], the IC50 was 500 to 1000 nM.

`CSc1nnc(NC(=O)c2nnc(Nc3ccccc3)o2)s1` [Compound 257, 5-anilino-N-(5-methylsulfanyl-1,3,4-thiadiazol-2-yl)-1,3,4-oxadiazole-2-carboxamide] showed an IC50 of 500 to 1000 nM.

In the case of `CSc1nnc(NC(=O)c2nnc(Cc3ccccc3)o2)s1` [Compound 259, 5-benzyl-N-(5-methylsulfanyl-1,3,4-thiadiazol-2-yl)-1,3,4-oxadiazole-2-carboxamide], the IC50 is reported as 500 to 1000 nM.

For `CSc1nnc(NC(=O)c2nnc3ccccn23)s1` [Compound 260], the IC50 was ≥ 1000 nM.

Work on `CSc1nnc(NC(=O)c2nc(Cc3ccccc3)no2)s1` [Compound 261, 3-benzyl-N-(5-methylsulfanyl-1,3,4-thiadiazol-2-yl)-1,2,4-oxadiazole-5-carboxamide] yielded an IC50 of 500 to 1000 nM.

In the case of `CSc1nnc(NC(=O)c2noc(C3CCCCC3)n2)s1` [Compound 263, 5-cyclohexyl-N-(5-(methylthio)-1,3,4-thiadiazol-2-yl)-1,2,4-oxadiazole-3-carboxamide], the IC50 is reported as ≥ 1000 nM.

With `CSc1nnc(NC(=O)c2cc(-c3ccc4ccncc4c3)cc(=O)o2)s1` [Compound 264, 4-(isoquinolin-7-yl)-N-(5-(methylthio)-1,3,4-thiadiazol-2-yl)-2-oxo-2H-pyran-6-carboxamide] the IC50 was 100 to 500 nM.

Compound `CSc1nnc(NC(=O)c2nc(Nc3ccccc3)no2)s1` [Compound 265, N-(5-(methylthio)-1,3,4-thiadiazol-2-yl)-3-(phenylamino)-1,2,4-oxadiazole-5-carboxamide] has an IC50 of 500 to 1000 nM.

For `CSc1nnc(NC(=O)c2ccnc(-c3ccccc3)c2)s1` [Compound 266, N-(5-(methylthio)-1,3,4-thiadiazol-2-yl)-2-phenylisonicotinamide], the IC50 was ≥ 1000 nM.

`CSc1nnc(NC(=O)c2cc(-c3cccc4c(C)ccnc34)cc(=O)o2)s1` [Compound 267, 4-(4-methylquinolin-8-yl)-N-(5-(methylthio)-1,3,4-thiadiazol-2-yl)-2-oxo-2H-pyran-6-carboxamide] gave an IC50 of 100 to 500 nM.

In the case of `CSc1nnc(NC(=O)c2cc(Nc3ccccc3)cc(=O)o2)s1` [Compound 268, N-(5-(methylthio)-1,3,4-thiadiazol-2-yl)-2-oxo-4-(phenylamino)-2H-pyran-6-carboxamide], the IC50 is reported as 100 to 500 nM.

`CSc1nnc(NC(=O)c2cc(-c3cccc4c3cnn4C)cc(=O)o2)s1` [Compound 269, 4-(1-methyl-1H-indazol-4-yl)-N-(5-(methylthio)-1,3,4-thiadiazol-2-yl)-2-oxo-2H-pyran-6-carboxamide] was tested, and the IC50 was 100 to 500 nM.

In the case of `CSc1nnc(NC(=O)c2cc(-c3ccc4cccnc4c3)cc(=O)o2)s1` [Compound 270, N-(5-(methylthio)-1,3,4-thiadiazol-2-yl)-2-oxo-4-(quinolin-7-yl)-2H-pyran-6-carboxamide], the IC50 is reported as 100 to 500 nM.

With `CSc1nnc(NC(=O)c2onc3c2ccc2ncccc23)s1` [Compound 271, N-(5-(methylthio)-1,3,4-thiadiazol-2-yl)isoxazolo[3,4-f]quinoline-3-carboxamide] the IC50 was 500 to 1000 nM.

With `CSc1nnc(NC(=O)c2cc(-c3ccc(=O)[nH]c3)cc(=O)o2)s1` [Compound 272, N-(5-(methylthio)-1,3,4-thiadiazol-2-yl)-2-oxo-4-(6-oxo-1,6-dihydropyridin-3-yl)-2H-pyran-6-carboxamide] the IC50 was 500 to 1000 nM.

With `CSc1nnc(NC(=O)c2onc3c2ccc2cnccc23)s1` [Compound 273, N-(5-(methylthio)-1,3,4-thiadiazol-2-yl)isoxazolo[3,4-f]isoquinoline-3-carboxamide] the IC50 was ≥ 1000 nM.

`CSc1nnc(NC(=O)c2cc(-c3cccc4c3ncn4C)cc(=O)o2)s1` [Compound 274, 4-(1-methyl-1H-benzo[d]imidazol-4-yl)-N-(5-(methylthio)-1,3,4-thiadiazol-2-yl)-2-oxo-2H-pyran-6-carboxamide] was tested, and the IC50 was 100 to 500 nM.

Work on `CSc1nnc(NC(=O)c2cc(-c3cccc4c3OCCN4)cc(=O)o2)s1` [Compound 275, 4-(3,4-dihydro-2H-benzo[b][1,4]oxazin-8-yl)-N-(5-(methylthio)-1,3,4-thiadiazol-2-yl)-2-oxo-2H-pyran-6-carboxamide] yielded an IC50 of 100 to 500 nM.

With `CSc1nnc(NC(=O)c2cc(-c3cccc(=O)[nH]3)cc(=O)o2)s1` [Compound 276, N-(5-(methylthio)-1,3,4-thiadiazol-2-yl)-2-oxo-4-(6-oxo-1,6-dihydropyridin-2-yl)-2H-pyran-6-carboxamide] the IC50 was 100 to 500 nM.

`CSc1nnc(NC(=O)c2cc(-c3cccc4ccncc34)cc(=O)o2)s1` [Compound 277, 4-(isoquinolin-8-yl)-N-(5-(methylthio)-1,3,4-thiadiazol-2-yl)-2-oxo-2H-pyran-6-carboxamide] was tested, and the IC50 was 500 to 1000 nM.

`COC(=O)c1ccc2c(C(=O)Nc3nnc(SC)s3)onc2c1` [Compound 278, methyl 3-((5-(methylthio)-1,3,4-thiadiazol-2-yl)carbamoyl)benzo[c]isoxazole-6-carboxylate] was tested, and the IC50 was 500 to 1000 nM.

With `CSc1nnc(NC(=O)c2onc3c2ccc2ccncc23)s1` [Compound 279, N-(5-(methylthio)-1,3,4-thiadiazol-2-yl)isoxazolo[4,3-h]isoquinoline-3-carboxamide] the IC50 was 500 to 1000 nM.

`CNc1nnc(NC(=O)c2onc3c2ccc2cccnc23)s1` [Compound 280, N-(5-(methylamino)-1,3,4-thiadiazol-2-yl)isoxazolo[4,3-h]quinoline-3-carboxamide] was tested, and the IC50 was ≥ 1000 nM.
